Source: PMC3310894 (Bioorganic & medicinal chemistry, 2012)

Experiments:
[1] = biological target: VEGFR-2 (Homo sapiens, UniProt P35968); conditions: for VEGFR-2 inhibition, fold less active than the standard 23: relative to standard 23
[2] = biological target: EGFR (Homo sapiens, UniProt P00533); conditions: for EGFR inhibition, fold less potent than the standard 20: relative to standard 20 (PD153035)
[3] = biological target: VEGFR-1 (Homo sapiens, UniProt P17948); conditions: for VEGFR-1 inhibition, fold less active than the standard 21: relative to standard 21
[4] = biological target: PDGFR-β (Homo sapiens, UniProt P09619); conditions: for PDGFRβ inhibition, fold less active than the standard 22: relative to standard 22 (AG1295)
[5] = system: COLO-205 tumor xenografts; experiment: COLO-205 human metastatic colon mouse xenograft; format: in vivo; conditions: athymic mice, 11a 35 mg/kg, 8 10 mg/kg, three times weekly, IP
[6] = mice; 35 mg/kg of 11a, 10 mg/kg of 8

VEGFR-1, sequence (P17948 27-1338): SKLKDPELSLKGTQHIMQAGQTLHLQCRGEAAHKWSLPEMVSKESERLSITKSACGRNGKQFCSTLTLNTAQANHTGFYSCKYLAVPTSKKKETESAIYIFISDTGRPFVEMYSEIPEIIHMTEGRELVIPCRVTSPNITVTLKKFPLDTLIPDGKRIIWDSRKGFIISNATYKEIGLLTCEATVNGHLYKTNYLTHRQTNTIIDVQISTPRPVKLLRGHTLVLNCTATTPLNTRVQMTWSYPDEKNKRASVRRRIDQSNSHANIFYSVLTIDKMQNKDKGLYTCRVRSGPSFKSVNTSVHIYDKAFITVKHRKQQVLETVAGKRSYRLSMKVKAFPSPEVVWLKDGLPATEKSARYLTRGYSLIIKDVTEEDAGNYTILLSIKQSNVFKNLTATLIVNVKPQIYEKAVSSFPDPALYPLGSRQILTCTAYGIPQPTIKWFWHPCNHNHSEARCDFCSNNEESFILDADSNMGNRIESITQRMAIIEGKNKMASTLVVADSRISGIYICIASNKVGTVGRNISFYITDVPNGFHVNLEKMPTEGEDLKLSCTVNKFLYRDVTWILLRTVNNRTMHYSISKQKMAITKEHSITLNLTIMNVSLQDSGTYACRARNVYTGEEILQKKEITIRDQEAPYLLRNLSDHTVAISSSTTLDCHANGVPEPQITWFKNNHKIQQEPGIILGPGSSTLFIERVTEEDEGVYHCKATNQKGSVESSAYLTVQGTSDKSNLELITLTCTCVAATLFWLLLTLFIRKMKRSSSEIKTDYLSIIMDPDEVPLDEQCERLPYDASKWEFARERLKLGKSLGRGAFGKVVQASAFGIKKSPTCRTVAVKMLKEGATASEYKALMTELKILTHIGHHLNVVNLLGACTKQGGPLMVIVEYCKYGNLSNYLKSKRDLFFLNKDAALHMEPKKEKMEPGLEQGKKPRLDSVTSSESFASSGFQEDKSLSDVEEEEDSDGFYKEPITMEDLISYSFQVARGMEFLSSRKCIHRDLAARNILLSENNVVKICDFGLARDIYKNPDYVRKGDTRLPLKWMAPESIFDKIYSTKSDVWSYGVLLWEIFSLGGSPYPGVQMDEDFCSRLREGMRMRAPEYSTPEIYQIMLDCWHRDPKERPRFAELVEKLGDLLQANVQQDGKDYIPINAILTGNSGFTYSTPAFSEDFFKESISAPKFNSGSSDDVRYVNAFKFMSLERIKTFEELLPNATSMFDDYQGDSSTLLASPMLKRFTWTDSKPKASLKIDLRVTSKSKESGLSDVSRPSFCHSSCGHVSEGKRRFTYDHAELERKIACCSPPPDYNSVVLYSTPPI
VEGFR-2, sequence (P35968 20-1356): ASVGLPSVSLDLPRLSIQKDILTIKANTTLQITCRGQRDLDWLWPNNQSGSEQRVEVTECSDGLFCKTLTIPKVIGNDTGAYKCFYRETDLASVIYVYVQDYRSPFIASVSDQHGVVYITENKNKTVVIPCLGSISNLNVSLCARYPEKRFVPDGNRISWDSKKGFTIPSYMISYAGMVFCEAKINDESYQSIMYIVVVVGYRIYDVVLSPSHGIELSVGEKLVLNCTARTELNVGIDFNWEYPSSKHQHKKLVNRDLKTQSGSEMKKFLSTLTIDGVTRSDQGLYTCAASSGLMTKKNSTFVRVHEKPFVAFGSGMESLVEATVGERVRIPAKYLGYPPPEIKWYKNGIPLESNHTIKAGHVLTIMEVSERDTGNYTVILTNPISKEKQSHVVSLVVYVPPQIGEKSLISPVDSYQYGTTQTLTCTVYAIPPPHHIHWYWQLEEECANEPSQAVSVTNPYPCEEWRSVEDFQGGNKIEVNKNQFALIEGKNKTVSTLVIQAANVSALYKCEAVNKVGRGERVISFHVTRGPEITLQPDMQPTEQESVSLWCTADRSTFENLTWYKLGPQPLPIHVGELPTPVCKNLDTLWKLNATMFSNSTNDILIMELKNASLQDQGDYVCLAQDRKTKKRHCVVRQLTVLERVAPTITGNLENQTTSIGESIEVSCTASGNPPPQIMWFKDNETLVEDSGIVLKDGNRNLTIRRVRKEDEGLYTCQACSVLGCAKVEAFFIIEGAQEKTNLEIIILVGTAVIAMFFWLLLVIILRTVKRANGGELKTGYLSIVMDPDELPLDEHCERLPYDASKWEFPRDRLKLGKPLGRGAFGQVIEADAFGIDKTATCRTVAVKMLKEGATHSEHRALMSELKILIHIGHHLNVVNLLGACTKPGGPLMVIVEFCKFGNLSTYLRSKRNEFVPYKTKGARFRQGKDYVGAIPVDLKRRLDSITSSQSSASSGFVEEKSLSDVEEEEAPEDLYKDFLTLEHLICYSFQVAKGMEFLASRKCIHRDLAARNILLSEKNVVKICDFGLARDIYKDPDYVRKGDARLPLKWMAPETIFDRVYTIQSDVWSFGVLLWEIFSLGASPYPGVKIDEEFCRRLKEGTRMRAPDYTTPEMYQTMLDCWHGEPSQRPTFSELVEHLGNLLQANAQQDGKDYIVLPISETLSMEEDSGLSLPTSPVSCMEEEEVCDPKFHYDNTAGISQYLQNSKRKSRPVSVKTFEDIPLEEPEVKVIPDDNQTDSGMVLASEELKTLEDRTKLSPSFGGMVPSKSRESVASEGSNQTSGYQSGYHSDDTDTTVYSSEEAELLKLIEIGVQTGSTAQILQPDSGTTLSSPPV
PDGFR-β, sequence (P09619 33-1106): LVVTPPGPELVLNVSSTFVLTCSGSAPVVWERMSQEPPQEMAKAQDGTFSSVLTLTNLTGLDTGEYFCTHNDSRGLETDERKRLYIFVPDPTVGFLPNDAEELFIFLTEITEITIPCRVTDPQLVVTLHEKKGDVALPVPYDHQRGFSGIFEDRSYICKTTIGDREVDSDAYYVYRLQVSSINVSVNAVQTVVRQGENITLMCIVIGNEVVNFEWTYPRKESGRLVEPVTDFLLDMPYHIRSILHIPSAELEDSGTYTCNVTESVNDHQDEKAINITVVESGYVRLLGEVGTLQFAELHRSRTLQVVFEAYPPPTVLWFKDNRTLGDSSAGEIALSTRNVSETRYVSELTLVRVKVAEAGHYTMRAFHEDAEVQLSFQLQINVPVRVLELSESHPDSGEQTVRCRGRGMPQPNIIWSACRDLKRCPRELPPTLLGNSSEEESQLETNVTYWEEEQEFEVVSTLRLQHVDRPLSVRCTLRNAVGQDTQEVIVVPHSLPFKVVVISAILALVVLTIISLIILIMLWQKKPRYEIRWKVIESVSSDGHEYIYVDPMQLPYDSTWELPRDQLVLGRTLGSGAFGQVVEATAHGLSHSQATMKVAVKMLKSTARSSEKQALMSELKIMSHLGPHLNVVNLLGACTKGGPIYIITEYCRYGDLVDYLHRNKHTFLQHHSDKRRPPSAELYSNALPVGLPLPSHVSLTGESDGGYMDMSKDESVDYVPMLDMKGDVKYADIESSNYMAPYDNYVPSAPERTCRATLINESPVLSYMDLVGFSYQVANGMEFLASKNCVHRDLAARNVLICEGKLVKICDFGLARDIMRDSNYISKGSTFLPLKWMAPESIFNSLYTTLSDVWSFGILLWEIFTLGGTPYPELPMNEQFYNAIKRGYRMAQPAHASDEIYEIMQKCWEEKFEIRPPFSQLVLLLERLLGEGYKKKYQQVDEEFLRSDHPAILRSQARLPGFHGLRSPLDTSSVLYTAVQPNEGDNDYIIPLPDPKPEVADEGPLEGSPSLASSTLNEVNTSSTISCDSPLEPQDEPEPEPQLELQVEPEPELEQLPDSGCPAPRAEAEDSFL
EGFR, sequence (P00533 25-1210): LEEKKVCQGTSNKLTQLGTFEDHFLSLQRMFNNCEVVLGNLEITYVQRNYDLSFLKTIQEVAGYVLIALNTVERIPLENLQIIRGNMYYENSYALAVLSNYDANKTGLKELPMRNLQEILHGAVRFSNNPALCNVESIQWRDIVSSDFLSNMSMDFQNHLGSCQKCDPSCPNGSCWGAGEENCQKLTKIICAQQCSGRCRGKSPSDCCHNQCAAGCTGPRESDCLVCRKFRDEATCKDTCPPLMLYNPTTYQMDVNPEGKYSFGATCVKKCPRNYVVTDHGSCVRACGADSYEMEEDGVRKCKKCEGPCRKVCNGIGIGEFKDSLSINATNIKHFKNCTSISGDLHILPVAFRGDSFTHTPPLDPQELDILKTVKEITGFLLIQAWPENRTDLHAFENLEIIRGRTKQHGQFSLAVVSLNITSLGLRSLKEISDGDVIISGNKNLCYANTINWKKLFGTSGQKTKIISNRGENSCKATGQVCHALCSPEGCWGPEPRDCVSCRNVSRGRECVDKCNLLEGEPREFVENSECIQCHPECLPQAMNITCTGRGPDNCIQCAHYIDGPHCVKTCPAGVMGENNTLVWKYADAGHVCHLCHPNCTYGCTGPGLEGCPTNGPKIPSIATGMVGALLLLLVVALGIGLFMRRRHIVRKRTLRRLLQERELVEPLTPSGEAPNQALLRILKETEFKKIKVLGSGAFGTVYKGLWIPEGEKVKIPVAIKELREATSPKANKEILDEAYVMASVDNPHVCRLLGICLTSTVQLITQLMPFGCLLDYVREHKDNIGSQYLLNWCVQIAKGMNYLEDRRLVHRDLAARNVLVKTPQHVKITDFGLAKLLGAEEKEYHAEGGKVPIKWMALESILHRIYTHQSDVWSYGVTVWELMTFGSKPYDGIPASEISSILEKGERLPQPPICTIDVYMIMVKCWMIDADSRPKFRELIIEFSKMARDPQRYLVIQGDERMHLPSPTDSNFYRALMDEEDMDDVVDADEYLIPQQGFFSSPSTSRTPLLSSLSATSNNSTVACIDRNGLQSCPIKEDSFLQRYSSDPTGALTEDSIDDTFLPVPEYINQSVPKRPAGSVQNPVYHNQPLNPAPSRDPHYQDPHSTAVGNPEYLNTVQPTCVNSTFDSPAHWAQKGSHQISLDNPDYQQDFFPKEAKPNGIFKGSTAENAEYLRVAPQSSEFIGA

Row | Structure (SMILES) | EGFR inhibition, result in words [2] | VEGFR-2 inhibition, fold less active than the standard 23 [1] [fold] | VEGFR-1 inhibition, fold less active than the standard 21 [3] | also measured
1 | COc1ccc(OC)c(Cn2ccc3c(Nc4cccc(Br)c4)nc(N)nc32)c1 [Compound 13a, N^4-(3-bromophenyl)-7-(2,5-dimethoxybenzyl)-7H-pyrrolo[2,3-d]pyrimidine-2,4-diamine] | 2-digit micromolar inhibition | – | – | VEGFR-2 inhibition, result in words [1]: inactive even at 200 μM; EGFR inhibition, fold less potent than the standard 20 [2]: 346 fold
2 | Nc1nc(Nc2cccc(Br)c2)c2ccn(Cc3ccc(-c4ccccc4)cc3)c2n1 [Compound 18a, 7-Biphenyl-4-ylmethyl-N^4-(3-bromo-phenyl)-7H-pyrrolo[2,3-d]pyrimidine-2,4-diamine] | abolished | – | – | VEGFR-1 inhibition, result in words [3]: inactive at a concentration of 200 μM
3 | Nc1nc(Nc2cccc(Br)c2)c2ccn(Cc3ccc(Cl)cc3Cl)c2n1 [Compound 14a, N^4-(3-bromophenyl)-7-(2,4-dichlorobenzyl)-7H-pyrrolo[2,3-d]pyrimidine-2,4-diamine] | inactivity | – | – | VEGFR-2 inhibition, result in words [1]: inactive
4 | Nc1nc(Nc2cccc(Br)c2)c2ccn(Cc3ccc(Cl)c(Cl)c3)c2n1 [Compound 15a, N^4-(3-bromophenyl)-7-(3,4-dichlorobenzyl)-7H-pyrrolo[2,3-d]pyrimidine-2,4-diamine] | inactivity | 6 | 7 fold | –
5 | Nc1nc(Nc2cccc(Br)c2)c2ccn(Cc3ccc4ccccc4c3)c2n1 [Compound 17a, N^4-(3-bromophenyl)-7-(2-naphthylmethyl)-7H-pyrrolo[2,3-d]pyrimidine-2,4-diamine] | abolished | 2 | 2.8 fold | PDGFRβ inhibition, fold less active than the standard 22 [4]: 34 fold
6 | Nc1nc(Nc2cccc(Br)c2)c2ccn(Cc3ccccc3Cl)c2n1 [Compound 11a, N^4-(3-bromophenyl)-7-(2-chlorobenzyl)-7H-pyrrolo[2,3-d]pyrimidine-2,4-diamine] | – | 1.6 | 7 fold | numbers of COLO-205 metastases to the liver [5]: significantly reduced numbers; primary tumor growth rate compared to the control [5]: significant decreases; primary tumor vascularity compared to control animals [5]: significant decrease; PDGFRβ inhibition, result in words [4]: single digit micromolar concentrations; PDGFRβ inhibition, fold more active than parent regioisomer 11 ([4]; relative to 6-substituted regioisomer 11): > 33 fold; toxicity in six week toxicity determination study [6]: no overt toxicity
7 | Nc1nc(Nc2cccc(Br)c2)c2ccn(Cc3cccc4ccccc34)c2n1 [Compound 16a, N^4-(3-bromophenyl)-7-(1-naphthylmethyl)-7H-pyrrolo[2,3-d]pyrimidine-2,4-diamine] | abolished | 1.4 | 8.4 fold | PDGFRβ inhibition, fold less active than the standard 22 [4]: 20 fold; VEGFR-2 inhibition, fold less active than parent regioisomer 16 ([1]; 16a versus 16): 3 fold
8 | Cc1[nH]c(/C=C2\C(=O)Nc3ccccc32)c(C)c1CCC(=O)O [Compound 8, TSU-68, reference compound] | – | – | – | primary tumor growth rate compared to the control [5]: significant decreases; primary tumor vascularity compared to control animals [5]: significant decrease; toxicity in six week toxicity determination study [6]: no overt toxicity
9 | Nc1nc(Nc2cccc(Br)c2)c2ccn(Cc3ccccc3)c2n1 [Compound 9a, 7-benzyl-N^4-(3-bromophenyl)-7H-pyrrolo[2,3-d]pyrimidine-2,4-diamine] | – | 2 | 5.6 fold | EGFR inhibition, fold less potent than the standard 20 [2]: about 800 fold
10 | COc1cc(Cn2ccc3c(Nc4cccc(Br)c4)nc(N)nc32)cc(OC)c1OC [Compound 19a, N^4-(3-Bromo-phenyl)-7-(3,4,5-trimethoxy-benzyl)-7H-pyrrolo[2,3-d]pyrimidine-2,4-diamine] | inactivity | 2 | about 8.8 fold | PDGFRβ inhibition, result in words [4]: single digit micromolar concentrations
